This assay has as its target T1, human motilin receptor (GPR38) (Homo sapiens, UniProt O43193).
T1 construct: expressed in transfected cells; host or cells: CHO-K1
The assay can be described thus: GPR38 (Motilin Receptor) Functional Assay, NFAT-beta-lactamase reporter in CHO-K1 cells. In kind it is cell-based. As to the method:
The potencies and efficacies of the compounds of this invention for GPR38 can be determined by reporter assay performed on the human cloned receptor as described herein.
GPR38 (Motilin Receptor) Functional Assay
A CHO-K1 cell line stably transfected NFAT-beta-lactamase reporter and human motilin receptor gene was used. The cells were cultured in culture medium (Dulbecco's modified eagle medium containing 10% fetal bovine serum, 1 mM sodium pyruvate, 0.1 mM MEM nonessential amino acids, 25 mM HEPES buffer, 50 units/mL penicillin, 50 microg/mL streptomycin, 100 microg/mL zeocin, and 500 microg/mL G418). The cells were harvested with 0.05% trypsin EDTA and centrifuged. The cell pellets were resuspended in the culture medium and plated into a black/clear bottom 384-well plate at a density of 8000 cells per well, then incubated at 37° C. with 5% CO2 for over night (about 20 hours). On the day of assay, the culture medium was aspirated and 20 microL of assay medium (Dulbecco's modified eagle medium containing 100 units/mL penicillin and 100 microg/mL streptomycin) was added to each well, then the cell plates were placed in incubator at 37° C. with 5% CO2 for 1.5 hours. Compounds were prepared in 100% DMSO and these were diluted to 5× of final concentration with assay buffer (Hanks balanced salt solution, 20 mM HEPES, and 0.1% BSA), then dispensed into 384-well plate (5 microL/well). After incubation at 37° C. with 5% CO2 for 4.5 hours, CCF4-AM loading solution (Invitrogen Corp.) was added to each well. After incubation for 2 hours at room temperature, fluorescence intensities were measured by using plate reader FDSS (Hamamatsu Photonics K. K.) with excitation 400 nm, emission 465 nm/540 nm. Agonistic activity (EC50) was calculated from the sigmoidal dose-response curve using GraphPad Prism software (GraphPad Software, Inc.).

SMILES strings stand for the structures. Like-named read-outs stand apart in the source and are kept apart here.

T1 sequence (O43193 whole entry): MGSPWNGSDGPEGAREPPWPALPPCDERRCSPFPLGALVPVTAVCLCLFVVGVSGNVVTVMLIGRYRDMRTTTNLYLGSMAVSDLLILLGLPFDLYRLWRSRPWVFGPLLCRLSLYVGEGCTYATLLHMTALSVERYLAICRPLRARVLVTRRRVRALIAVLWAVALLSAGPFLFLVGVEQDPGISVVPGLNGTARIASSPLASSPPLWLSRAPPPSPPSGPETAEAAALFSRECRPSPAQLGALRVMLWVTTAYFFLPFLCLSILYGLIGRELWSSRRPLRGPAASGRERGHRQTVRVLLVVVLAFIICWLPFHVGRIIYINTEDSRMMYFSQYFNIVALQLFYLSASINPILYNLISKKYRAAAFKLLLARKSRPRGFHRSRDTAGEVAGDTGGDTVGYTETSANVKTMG

The EC50 is the midpoint of the concentration-response curve. In turn, `CC1(C)C(=O)N(C2CCN(C(=O)[C@H](CCc3ccccc3)NC(=O)[C@@H]3CCCNC3)CC2)c2ccccc21` [Example 1, (R)—N—((S)-1-(4-(3,3-dimethyl-2-oxoindolin-1-yl)piperidin-1-yl)-1-oxo-4-phenylbutan-2-yl)piperidine-3-carboxamide] gave an EC50 of at most 10 nM. Also, the EC50 (ED50 (nM), Table 15, functional activity toward GPR38 (motilin receptor), (S) versus (R) amino acid linker) came to 0.24 nM.
`CC1(C)C(=O)N(C2CCN(C(=O)[C@H](CCc3ccccc3)NC(=O)[C@@H]3CCCCN3)CC2)c2ccccc21` [Example 2, (S)-N-((S)-1-(4-(3,3-dimethyl-2-oxoindolin-1-yl)piperidin-1-yl)-1-oxo-4-phenylbutan-2-yl)piperidine-2-carboxamide]: the EC50 is at most 10 nM.
The molecule `CC1(C)C(=O)N(C2CCN(C(=O)[C@H](CCc3ccccc3)NC(=O)[C@@H](N)C(C)(C)C)CC2)c2ccccc21` [Example 3, (S)-2-amino-N-((S)-1-(4-(3,3-dimethyl-2-oxoindolin-1-yl)piperidin-1-yl)-1-oxo-4-phenylbutan-2-yl)-3,3-dimethylbutanamide] yielded an EC50 of at most 10 nM.
For `CC1(C)C(=O)N(C2CCN(C(=O)[C@H](CCc3ccccc3)NC(=O)CC3(N)CCC3)CC2)c2ccccc21` [Example 6, (S)-2-(1-aminocyclobutyl)-N-(1-(4-(3,3-dimethyl-2-oxoindolin-1-yl)piperidin-1-yl)-1-oxo-4-phenylbutan-2-yl)acetamide], the concentration giving a half-maximal response (EC50) was at most 10 nM.
Still for that read-out and setting: the figure for `CC1(C)C(=O)N(C2CCN(C(=O)[C@H](CCc3ccccc3)NC(=O)C3(CN)CC3)CC2)c2ccccc21` [Example 7, (S)-1-(aminomethyl)-N-(1-(4-(3,3-dimethyl-2-oxoindolin-1-yl)piperidin-1-yl)-1-oxo-4-phenylbutan-2-yl)cyclopropanecarboxamide] is at most 10 nM; for `CC1(C)C(=O)N(C2CCN(C(=O)[C@H](CCc3ccccc3)NC(=O)C3CNC3)CC2)c2ccccc21` [Example 9, (S)-N-(1-(4-(3,3-dimethyl-2-oxoindolin-1-yl)piperidin-1-yl)-1-oxo-4-phenylbutan-2-yl)azetidine-3-carboxamide] it is at most 10 nM.
Still for that read-out and setting: to `CC1(C)C(=O)N(C2CCN(C(=O)[C@H](CCc3ccccc3)NC(=O)C3CCNCC3)CC2)c2ccccc21` [Example 10, (S)-N-(1-(4-(3,3-dimethyl-2-oxoindolin-1-yl)piperidin-1-yl)-1-oxo-4-phenylbutan-2-yl)piperidine-4-carboxamide] belongs at most 10 nM.
Regarding `CC1(C)C(=O)N(C2CCN(C(=O)[C@H](CCc3ccccc3)NC(=O)CC3(N)CCCC3)CC2)c2ccccc21` [Example 12, (S)-2-(1-aminocyclopentyl)-N-(1-(4-(3,3-dimethyl-2-oxoindolin-1-yl)piperidin-1-yl)-1-oxo-4-phenylbutan-2-yl)acetamide], the 50% effective concentration (EC50) was at most 10 nM.
Still for that read-out and setting: the figure for `CNC(C)(C)CC(=O)N[C@@H](CCc1ccccc1)C(=O)N1CCC(N2C(=O)C(C)(C)c3ccccc32)CC1` [Example 13, (S)-N-(1-(4-(3,3-dimethyl-2-oxoindolin-1-yl)piperidln-1-yl)-1-oxo-4-phenylbutan-2-yl)-3-methyl-3-(methylamino) butanamide] is at most 10 nM.
The same measure, in the same setting: to `CC1(C)C(=O)N(C2CCN(C(=O)[C@H](CCc3ccccc3)NC(=O)CCNC3CCCC3)CC2)c2ccccc21` [Example 14, (S)-3-(cyclopentylamino)-N-(1-(4-(3,3-dimethyl-2-oxoindolin-1-yl)piperidin-1-yl)-1-oxo-4-phenylbutan-2-yl)propanamide] belongs at most 10 nM.
On the same count and under the same terms, the figure for `COCCN(C)CCC(=O)N[C@@H](CCc1ccccc1)C(=O)N1CCC(N2C(=O)C(C)(C)c3ccccc32)CC1` [Example 15, (S)-N-(1-(4-(3,3-dimethyl-2-oxoindolin-1-yl)piperidin-1-yl)-1-oxo-4-phenylbutan-2-yl)-3-((2-methoxyethyl)(methyl)amino) propanamide] is at most 10 nM.
`CC1(C)C(=O)N(C2CCN(C(=O)[C@H](CCc3ccccc3)NC(=O)CN3CCCC3)CC2)c2ccccc21` [Example 17, (S)—N-(1-(4-(3,3-dimethyl-2-oxoindolin-1-yl)piperidin-1-yl)-1-oxo-4-phenylbutan-2-yl)-2-(pyrrolidin-1-yl)acetamide] gave an EC50 of at most 10 nM.
On the same count and under the same terms, the figure for `CN1CCC[C@@H](C(=O)N[C@@H](CCc2ccccc2)C(=O)N2CCC(N3C(=O)C(C)(C)c4ccccc43)CC2)C1` [Example 20, (R)—N—((S)-1-(4-(3,3-dimethyl-2-oxoindolin-1-yl)piperidin-1-yl)-1-oxo-4-phenylbutan-2-yl)-1-methylpiperidine-3-carboxamide] is at most 10 nM.
`CN[C@@H]1CC[C@H](C(=O)N[C@@H](Cc2ccc(Cl)cc2)C(=O)N2CCC(N3C(=O)C(C)(C)c4ccccc43)CC2)C1` [Example 21, (1S,3R)—N—((S)-3-(4-chlorophenyl)-1-(4-(3,3-dimethyl-2-oxoindolin-1-yl)piperidin-1-yl)-1-oxopropan-2-yl)-3-(methylamino)cyclopentanecarboxamide]: the EC50 is at most 10 nM.
Consider `CN[C@@H]1CC[C@H](C(=O)N[C@@H](Cc2ccccc2C(F)(F)F)C(=O)N2CCC(N3C(=O)C(C)(C)c4ccccc43)CC2)C1` [Example 22, (1S,3R)-N-((S)-1-(4-(3,3-dimethyl-2-oxoindolin-1-yl)piperidin-1-yl)-1-oxo-3-(2-(trifluoromethyl)phenyl)propan-2-yl)-3-(methylamino)cyclopentane-carboxamide], for which the EC50 was at most 10 nM.
Same read-out and setting: to `CN[C@@H]1CC[C@H](C(=O)N[C@@H](CC2CCCCC2)C(=O)N2CCC(N3C(=O)C(C)(C)c4ccccc43)CC2)C1` [Example 23, (1S,3R)-N-((S)-3-cyclohexyl-1-(4-(3,3-dimethyl-2-oxoindolin-1-yl)piperidin-1-yl)-1-oxopropan-2-yl)-3-(methyl-amino)cyclopentanecarboxamide] belongs at most 10 nM.
For `CN[C@@H]1CC[C@H](C(=O)N[C@@H](Cc2cccc3ccccc23)C(=O)N2CCC(N3C(=O)C(C)(C)c4ccccc43)CC2)C1` [Example 24, (1S,3R)-N-((S)-1-(4-(3,3-dimethyl-2-oxoindolin-1-yl)piperidin-1-yl)-3-(naphthalen-1-yl)-1-oxopropan-2-yl)-3-(methylamino)cyclopentane-carboxamide], the EC50 was at most 10 nM.
The same measure, in the same setting: the figure for `CN[C@@H]1CC[C@H](C(=O)N[C@@H](Cc2ccccc2Cl)C(=O)N2CCC(N3C(=O)C(C)(C)c4ccccc43)CC2)C1` [Example 25, (1S,3R)-N-((S)-3-(2-chlorophenyl)-1-(4-(3,3-dimethyl-2-oxoindolin-1-yl)piperidin-1-yl)-1-oxopropan-2-yl)-3-(methylamino)cyclopentane-carboxamide] is at most 10 nM; for `CN[C@@H]1CC[C@H](C(=O)N[C@@H](Cc2ccccc2C)C(=O)N2CCC(N3C(=O)C(C)(C)c4ccccc43)CC2)C1` [Example 26, (1S,3R)-N-((S)-1-(4-(3,3-dimethyl-2-oxoindolin-1-yl)piperidin-1-yl)-1-oxo-3-o-tolylpropan-2-yl)-3-(methyl-amino)cyclopentanecarboxamide] it is at most 10 nM.
The same measure, in the same setting: to `CN[C@@H]1CC[C@H](C(=O)N[C@@H](Cc2ccc(F)cc2)C(=O)N2CCC(N3C(=O)C(C)(C)c4ccccc43)CC2)C1` [Example 27, (1S,3R)-N-((S)-1-(4-(3,3-dimethyl-2-oxoindolin-1-yl)piperidin-1-yl)-3-(4-fluorophenyl)-1-oxopropan-2-yl)-3-(methylamino)cyclopentane-carboxamide] belongs at most 10 nM.
Still for that read-out and setting: the figure for `CN[C@@H]1CC[C@H](C(=O)N[C@@H](Cc2cccc(F)c2)C(=O)N2CCC(N3C(=O)C(C)(C)c4ccccc43)CC2)C1` [Example 28, (1S,3R)-N-((S)-1-(4-(3,3-dimethyl-2-oxoindolin-1-yl)piperidin-1-yl)-3-(3-fluorophenyl)-1-oxopropan-2-yl)-3-(methylamino)cyclopentane-carboxamide] is at most 10 nM.
`CN[C@@H]1CC[C@H](C(=O)N[C@@H](Cc2cccc(Cl)c2)C(=O)N2CCC(N3C(=O)C(C)(C)c4ccccc43)CC2)C1` [Example 29, (1S,3R)-N-((S)-3-(3-chlorophenyl)-1-(4-(3,3-dimethyl-2-oxoindolin-1-yl)piperidin-1-yl)-1-oxopropan-2-yl)-3-(methylamino)cyclopentane-carboxamide] displayed a concentration for a half-maximal effect (EC50) of at most 10 nM.
The same measure, in the same setting: the figure for `CN[C@@H]1CC[C@H](C(=O)N[C@@H](Cc2ccccc2)C(=O)N2CCC(N3C(=O)C(C)(C)c4ccccc43)CC2)C1` [Example 30, (1S,3R)-N-((S)-1-(4-(3,3-dimethyl-2-oxoindolin-1-yl)piperidin-1-yl)-1-oxo-3-phenylpropan-2-yl)-3-(methylamino) cyclopentanecarboxamide] is at most 10 nM; for `CN[C@@H]1CC[C@H](C(=O)N[C@@H](Cc2cccc(OC)c2)C(=O)N2CCC(N3C(=O)C(C)(C)c4ccccc43)CC2)C1` [Example 31, (1S,3R)-N-((S)-1-(4-(3,3-dimethyl-2-oxoindolin-1-yl)piperidin-1-yl)-3-(3-methoxyphenyl)-1-oxopropan-2-yl)-3-(methylamino)cyclopentane-carboxamide] it is at most 10 nM.
